The assay has as its system BDF1 mice, P388 leukemia ip, median survival T/C. The assay can be described thus: NCI In Vivo Anticancer Drug Screen. Data for tumor model P388 Leukemia (intraperitoneal) in B6D2F1 (BDF1) mice. As to conditions: endpoint: median survival time, higher = longer survival. In a few lines:
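In tumour-bearing mice, survival after compound treatment is set against the vehicle group and given as a quotient.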

[1] abbreviates: dose: 50.0 mg/kg/injection, schedule: Q01DX009 (ip), vehicle: saline with Tween-80.
Setting [2] is: dose: 50.0 mg/kg/injection, schedule: Q04DX003 (ip), vehicle: saline.
Setting [3] is: dose: 100.0 mg/kg/injection, schedule: Q04DX003 (ip), vehicle: saline.
The mark [4] stands for this setting: dose: 12.5 mg/kg/injection, schedule: Q01DX009 (ip), vehicle: Klucel (hydroxypropylcellulose) (HPC).
[5] abbreviates: dose: 25.0 mg/kg/injection, schedule: Q01DX009 (ip), vehicle: Klucel (hydroxypropylcellulose) (HPC).
The mark [6] stands for this setting: dose: 25.0 mg/kg/injection, schedule: Q04DX003 (ip), vehicle: Klucel (hydroxypropylcellulose) (HPC).
[7] abbreviates: dose: 50.0 mg/kg/injection, schedule: Q01DX009 (ip), vehicle: Klucel (hydroxypropylcellulose) (HPC).
Where [8] appears, read: dose: 50.0 mg/kg/injection, schedule: Q04DX003 (ip), vehicle: Klucel (hydroxypropylcellulose) (HPC).
[9] abbreviates: dose: 100.0 mg/kg/injection, schedule: Q01DX009 (ip), vehicle: Klucel (hydroxypropylcellulose) (HPC).
Where [10] appears, read: dose: 100.0 mg/kg/injection, schedule: Q04DX003 (ip), vehicle: Klucel (hydroxypropylcellulose) (HPC).
Setting [11] is: dose: 200.0 mg/kg/injection, schedule: Q01DX009 (ip), vehicle: Klucel (hydroxypropylcellulose) (HPC).
The mark [12] stands for this setting: dose: 400.0 mg/kg/injection, schedule: Q01DX009 (ip), vehicle: Klucel (hydroxypropylcellulose) (HPC).
[13] abbreviates: dose: 100.0 mg/kg/injection, schedule: Q01DX001 (ip), vehicle: saline with Tween-80.

Values joined by “and” are separate entries in the source; they are usually repeats but may differ in a detail not shown here. Equal values may be shown once. Inconclusive results and toxic doses are left out.

`CC(=O)n1cc(F)c(=O)[nH]c1=O`: the T/C is 116 % of control (dose: 0.57 mg/kg/injection, schedule: Q01DX009 (ip), vehicle: saline); 113 % of control (dose: 0.99 mg/kg/injection, schedule: Q01DX009 (ip), vehicle: saline); 122 % of control (dose: 1.3 mg/kg/injection, schedule: Q01DX009 (ip), vehicle: saline); 165 % of control (dose: 2.0 mg/kg/injection, schedule: Q01DX009 (ip), vehicle: saline); 150 % of control (dose: 3.12 mg/kg/injection, schedule: Q01DX009 (ip), vehicle: saline with Tween-80); 122 % of control (dose: 5.0 mg/kg/injection, schedule: Q04DX003 (ip), vehicle: saline). Besides, the T/C was 160 % of control and 165 % of control (dose: 6.25 mg/kg/injection, schedule: Q01DX009 (ip), vehicle: saline with Tween-80); 166 % of control (dose: 7.2 mg/kg/injection, schedule: Q01DX009 (ip), vehicle: saline with Tween-80); 178 % of control and 215 % of control (dose: 12.5 mg/kg/injection, schedule: Q01DX009 (ip), vehicle: saline with Tween-80); 235 % of control and 195 % of control (dose: 25.0 mg/kg/injection, schedule: Q01DX009 (ip), vehicle: saline with Tween-80); 122 % of control (dose: 25.0 mg/kg/injection, schedule: Q04DX003 (ip), vehicle: saline); 86 % of control under setting [1]. Also, the T/C (dose: 50.0 mg/kg/injection, schedule: Q04DX003 (ip), vehicle: saline with Tween-80) was 155 % of control; the T/C under setting [2] was 150 % of control; the T/C (dose: 100.0 mg/kg/injection, schedule: Q04DX003 (ip), vehicle: other) was 108 % of control; the T/C under setting [3] was 181 % of control; the T/C (dose: 150.0 mg/kg/injection, schedule: Q04DX003 (ip), vehicle: other) is 100 % of control; the T/C (dose: 400.0 mg/kg/injection, schedule: Q04DX003 (ip), vehicle: saline with Tween-80) was 90 % of control.

In the case of `O=C1CCCC(=O)C1C(C[N+](=O)[O-])c1ccccc1` (configuration not stated), the T/C under setting [4] was 95 % of control and 100 % of control; the T/C under setting [5] was 97 % of control and 119 % of control; the T/C under setting [6] was 100 % of control; the T/C under setting [7] is 88 % of control; the T/C under setting [8] is 104 % of control; the T/C under setting [9] is 96 % of control and 110 % of control. Further, the T/C under setting [10] was 108 % of control.

On to `Nc1ncnc2c1ncn2C1CC(CO)C(O)C1O` (configuration not stated), for which the T/C reads like this: (dose: 6.25 mg/kg/injection, schedule: Q01DX009 (ip), vehicle: carboxymethylcellulose (CMC)) 100 % of control; (dose: 12.5 mg/kg/injection, schedule: Q01DX009 (ip), vehicle: carboxymethylcellulose (CMC)) 95 % of control.

Turning to `Cc1ccc2c[n+]3cc4ccccc4cc3cc2c1`, the T/C (dose: 1.56 mg/kg/injection, schedule: Q01DX009 (ip), vehicle: saline) is 113 % of control; the T/C (dose: 4.5 mg/kg/injection, schedule: Q04DX003 (ip), vehicle: saline) is 113 % of control; the T/C (dose: 4.6 mg/kg/injection, schedule: Q01DX009 (ip), vehicle: saline) is 150 % of control; the T/C (dose: 9.0 mg/kg/injection, schedule: Q04DX003 (ip), vehicle: saline) was 86 % of control.

As for `O=C(/C=C/C(=O)Oc1ccccc1)Oc1ccccc1`, the T/C is, setting by setting: under setting [9], 90 % of control; under setting [11], 109 % of control; under setting [12], 90 % of control.

As to `NC(CSC(c1ccccc1)(c1ccccc1)c1ccc2ccccc2c1)C(=O)O` (configuration not stated), the T/C (dose: 2.75 mg/kg/injection, schedule: Q01DX009 (ip), vehicle: saline) is 173 % of control; the T/C (dose: 4.12 mg/kg/injection, schedule: Q01DX009 (ip), vehicle: saline) is 227 % of control; the T/C (dose: 6.25 mg/kg/injection, schedule: Q01DX009 (ip), vehicle: saline) is 250 % of control; the T/C under setting [4] was 216 % of control; the T/C (dose: 12.5 mg/kg/injection, schedule: Q01DX009 (ip), vehicle: saline) is 89 % of control; the T/C under setting [5] is 333 % of control. Also, the T/C reads like this: under setting [6], 210 % of control; (dose: 29.0 mg/kg/injection, schedule: Q04DX003 (ip), vehicle: saline) 200 % of control; (dose: 45.0 mg/kg/injection, schedule: Q04DX003 (ip), vehicle: saline) 86 % of control; under setting [7], 200 % of control; under setting [8], 200 % of control; under setting [2], 300 % of control. For the same compound, the T/C runs as follows: (dose: 66.0 mg/kg/injection, schedule: Q04DX003 (ip), vehicle: saline) 272 % of control; under setting [10], 300 % of control; under setting [3], 300 % of control and 154 % of control; (dose: 200.0 mg/kg/injection, schedule: Q04DX003 (ip), vehicle: saline) 95 % of control.

On to `CC(=O)Oc1c(Cl)c(Cl)c(C#N)c(Cl)c1C#N`, for which the T/C by setting is: under setting [1], 111 % of control; (dose: 100.0 mg/kg/injection, schedule: Q01DX009 (ip), vehicle: saline with Tween-80) 122 % of control.

For the compound `C(=N\N=C\c1c[nH]c2ccccc12)/c1c[nH]c2ccccc12`, the T/C was 89 % of control (dose: 100.0 mg/kg/injection, schedule: Q01DX009 (ip), vehicle: gum acacia); 108 % of control (dose: 100.0 mg/kg/injection, schedule: Q04DX003 (ip), vehicle: gum acacia); 89 % of control (dose: 200.0 mg/kg/injection, schedule: Q01DX009 (ip), vehicle: gum acacia); 95 % of control (dose: 200.0 mg/kg/injection, schedule: Q04DX003 (ip), vehicle: gum acacia); 96 % of control (dose: 400.0 mg/kg/injection, schedule: Q01DX009 (ip), vehicle: gum acacia); 100 % of control (dose: 400.0 mg/kg/injection, schedule: Q04DX003 (ip), vehicle: gum acacia).

`Cc1ccc(S(=O)(=O)NC(c2ccccc2)(c2ccccc2)c2ccccc2)cc1`: the T/C is 113 % of control under setting [9], 109 % of control under setting [11] and 90 % of control under setting [12].

As to `O=c1[nH]ccn2cnnc12`, the T/C runs as follows: under setting [13], 95 % of control; (dose: 200.0 mg/kg/injection, schedule: Q01DX001 (ip), vehicle: saline with Tween-80) 95 % of control; (dose: 400.0 mg/kg/injection, schedule: Q01DX001 (ip), vehicle: saline with Tween-80) 104 % of control.

As to `NC1CC2(CCC1=O)c1ccccc1-c1ccccc12` (configuration not stated), the T/C is 96 % of control (dose: 25.0 mg/kg/injection, schedule: Q01DX001 (ip), vehicle: saline with Tween-80); 94 % of control (dose: 50.0 mg/kg/injection, schedule: Q01DX001 (ip), vehicle: saline with Tween-80); 97 % of control under setting [13].

For the compound `C1=NOC2c3ccc4ccccc4c3CCC12` (configuration not stated), the T/C is, setting by setting: (dose: 200.0 mg/kg/injection, schedule: Q04DX003 (ip), vehicle: Klucel (hydroxypropylcellulose) (HPC)) 87 % of control; (dose: 400.0 mg/kg/injection, schedule: Q04DX003 (ip), vehicle: Klucel (hydroxypropylcellulose) (HPC)) 95 % of control.

Consider `c1ccc2nc(-c3cc4ccccc4s3)ccc2c1`, for which the T/C is 104 % of control (dose: 100.0 mg/kg/injection, schedule: Q04DX003 (ip), vehicle: saline sonified); 95 % of control (dose: 200.0 mg/kg/injection, schedule: Q04DX003 (ip), vehicle: saline sonified); 118 % of control (dose: 400.0 mg/kg/injection, schedule: Q04DX003 (ip), vehicle: saline sonified).

The record behind these values is PubChem BioAssay AID328 (DTP/NCI, 2004).
